Values of other authors as cited in patent US20140107053A1, “APPLES WITH HIGH POLYPHENOLIC CONTENT” (CORESSENCE LIMITED, priority 2006, published 2014).

Columns and labels:
[1] = compared to (−)-epicatechin monomers (Shoji et al. 2006)
[2] = indicated by Tmax values in human studies

Compound | detection in human plasma | site of absorption [2] | also measured
Oc1cc(O)c2c(c1)O[C@H](c1ccc(O)c(O)c1)[C@H](O)[C@H]2c1c(O)cc(O)c2c1O[C@H](c1ccc(O)c(O)c1)[C@@H](O)C2 [Apple B1, epicatechin-(4β-8)-catechin] | detected at low levels | – | –
Oc1cc(O)c2c(c1)O[C@H](c1ccc(O)c(O)c1)[C@H](O)[C@H]2c1c(O)cc(O)c2c1O[C@H](c1ccc(O)c(O)c1)[C@H](O)C2 [Apple B2, epicatechin-(4β-8)-epicatechin] | detected at low levels | – | –
Oc1cc(O)c2c(c1)O[C@H](c1ccc(O)c(O)c1)[C@H](O)[C@H]2c1c(O)cc2c(c1O)C[C@@H](O)[C@@H](c1ccc(O)c(O)c1)O2 [Apple B5, epicatechin-(4β-6)-epicatechin] | – | – | detection in plasma (after chocolate consumption (Holt et al. 2002)): could not be detected
O.Oc1cc(O)c2c(c1)O[C@H](c1ccc(O)c(O)c1)[C@@H](O)C2 [catechin] | – | absorbed mainly in the small intestine | bioavailability [1]: relatively low bioavailability
epicatechin | – | absorbed mainly in the small intestine | –
